Measured values taken from ChEMBL document CHEMBL5143612, “Antibacterial activity evaluation of vinyl sulfones against global predominant methicillin-resistant Staphylococcus aureus USA300” (Bioorg Med Chem Lett, 2022).
≈ marks a conversion by molar mass, not a printed value. Calls of active or inactive are those of the source. The calls are words filed in the database; no cut-off is given here.

Columns and labels:
Type in all cases: functional
[1] = test system: Staphylococcus aureus; assay: Antibacterial activity against community-associated methicillin-resistant Staphylococcus aureus USA300 SF8300 assessed as inhibition of bacterial growth by measuring zone of inhibition at 30 ug incubated for 18 to 20 hrs by CLSI based disk diffusion analysis; details: time 18-20 hrs, read-out: DIZ
[2] = test system: Staphylococcus aureus; assay: Antibacterial activity against methicillin-susceptible Staphylococcus aureus ATCC 25923 assessed as inhibition of bacterial growth by measuring zone of inhibition at 30 ug incubated for 18 to 20 hrs by CLSI based disk diffusion analysis; details: time 18-20 hrs, read-out: DIZ
[3] = test system: Pseudomonas aeruginosa; assay: Antibacterial activity against Pseudomonas aeruginosa assessed as inhibition of bacterial growth by measuring zone of inhibition at 30 ug incubated for 18 to 20 hrs by CLSI based disk diffusion analysis; details: time 18-20 hrs, read-out: DIZ
[4] = test system: Staphylococcus aureus; assay: Antibacterial activity against community-associated methicillin-resistant Staphylococcus aureus USA300 SF8300 assessed as inhibition of bacterial growth incubated for 18 to 20 hrs by CLSI based microdilution susceptibility analysis; details: time 18-20 hrs
[5] = test system: Staphylococcus aureus; assay: Antibacterial activity against methicillin-susceptible Staphylococcus aureus ATCC 29213 assessed as inhibition of bacterial growth incubated for 18 to 20 hrs by CLSI based microdilution susceptibility analysis; details: time 18-20 hrs
[6] = test system: Pseudomonas aeruginosa; assay: Antibacterial activity against Pseudomonas aeruginosa assessed as inhibition of bacterial growth incubated for 18 to 20 hrs by CLSI based microdilution susceptibility analysis; details: time 18-20 hrs
[7] = test system: Staphylococcus aureus; assay: Bactericidal activity against community-associated methicillin-resistant Staphylococcus aureus USA300 SF8300 assessed as inhibition of bacterial growth incubated for 18 to 20 hrs by CLSI based microdilution susceptibility analysis; details: time 18-20 hrs
[8] = test system: Staphylococcus aureus; assay: Bactericidal activity against methicillin-susceptible Staphylococcus aureus ATCC 29213 assessed as inhibition of bacterial growth incubated for 18 to 20 hrs by CLSI based microdilution susceptibility analysis; details: time 18-20 hrs
[9] = test system: Pseudomonas aeruginosa; assay: Bactericidal activity against Pseudomonas aeruginosa assessed as inhibition of bacterial growth incubated for 18 to 20 hrs by CLSI based microdilution susceptibility analysis; details: time 18-20 hrs
[10] = test system: Staphylococcus aureus; assay: Inhibition of methicillin-susceptible Staphylococcus aureus ATCC 29213 bacterial cell adhesion to fibronectin at 0.1 mg/ml followed by compound addition on fibronectin precoated plate measured after 2 hrs by crystal violet dye based analysis

| SMILES | zone of inhibition at 30 µg/disc [1] | zone of inhibition at 30 µg/disc [2] | zone of inhibition at 30 µg/disc [3] | MIC [4] | MIC [5] | MIC [6] | MBC [7] | MBC [8] | MBC [9] | inhibition [10] |
| --- | --- | --- | --- | --- | --- | --- | --- | --- | --- | --- |
| Cc1ccc(S(=O)(=O)/C=C/CCCBr)cc1 | 6 mm | 6 mm | 6 mm | – | – | – | – | – | – | – |
| Cc1ccc(S(=O)(=O)/C=C/c2ccc(Cl)cc2)cc1 | 6 mm | 6 mm | 6 mm | – | – | – | – | – | – | – |
| N#C/C=C\S(=O)(=O)c1ccc(Br)cc1 | 23.4 mm | 22.6 mm | 13.8 mm | 60 µg/mL (≈ 220 µM) | 30 µg/mL (≈ 110 µM) | 60 µg/mL (≈ 220 µM) | 120 µg/mL (≈ 441 µM) | 30 µg/mL (≈ 110 µM) | > 120 µg/mL | Active |
| Cc1ccc(S(=O)(=O)/C=C/Cc2ccccc2)cc1 | 6 mm | 6 mm | 6 mm | – | – | – | – | – | – | – |
| C/C(=C/C#N)S(=O)(=O)c1ccc(C)cc1 | 23.6 mm | 23.6 mm | 6 mm | 7.5 µg/mL (≈ 33.9 µM) | 7.5 µg/mL (≈ 33.9 µM) | – | 15 µg/mL (≈ 67.8 µM) | 7.5 µg/mL (≈ 33.9 µM) | – | – |
| N#C/C=C\S(=O)(=O)c1ccccc1 | 6 mm | 22.3 mm | 14.1 mm | – | 15 µg/mL (≈ 77.6 µM) | 60 µg/mL (≈ 311 µM) | – | 30 µg/mL (≈ 155 µM) | 120 µg/mL (≈ 621 µM) | Active |
| CCCCOC(=O)/C=C/S(=O)(=O)c1ccc(C)cc1 | 15.1 mm | 13.9 mm | 6 mm | 60 µg/mL (≈ 212 µM) | 7.5 µg/mL (≈ 26.6 µM) | – | > 120 µg/mL | 120 µg/mL (≈ 425 µM) | – | – |
| Cc1ccc(S(=O)(=O)/C=C/COCc2ccccc2)cc1 | 6 mm | 8.3 mm | 6 mm | – | > 120 µg/mL | – | – | > 120 µg/mL | – | – |
| N#C/C=C/S(=O)(=O)c1ccc([N+](=O)[O-])cc1 | 6 mm | 21.1 mm | 13.1 mm | – | 30 µg/mL (≈ 126 µM) | 120 µg/mL (≈ 504 µM) | – | 60 µg/mL (≈ 252 µM) | 120 µg/mL (≈ 504 µM) | Active |
| CCS(=O)(=O)c1ccc(C)cc1 | 6 mm | 6 mm | 6 mm | – | – | – | – | – | – | – |
| O=[N+]([O-])c1ccc(S(=O)(=O)/C=C/CCCBr)cc1 | 6 mm | 6 mm | 6 mm | – | – | – | – | – | – | – |
| COC(=O)/C(C)=C/S(=O)(=O)c1ccc(C)cc1 | 6 mm | 6 mm | 6 mm | – | – | – | – | – | – | – |
| Cc1ccc(S(=O)(=O)/C=C/C(N)=O)cc1 | 6 mm | 22 mm | 6 mm | – | 60 µg/mL (≈ 266 µM) | – | – | 60 µg/mL (≈ 266 µM) | – | – |
| N#C/C=C\S(=O)(=O)c1ccc(Cl)cc1 | 6 mm | 20 mm | 16.3 mm | – | 7.5 µg/mL (≈ 32.9 µM) | 60 µg/mL (≈ 264 µM) | – | 60 µg/mL (≈ 264 µM) | 60 µg/mL (≈ 264 µM) | Active |
| COc1ccc(S(=O)(=O)/C=C\C#N)cc1 | 24.7 mm | 24.5 mm | 14.2 mm | 15 µg/mL (≈ 67.2 µM) | 3.75 µg/mL (≈ 16.8 µM) | 120 µg/mL (≈ 538 µM) | 60 µg/mL (≈ 269 µM) | 60 µg/mL (≈ 269 µM) | 120 µg/mL (≈ 538 µM) | Active |
| C/C(C#N)=C\S(=O)(=O)c1ccc(C)cc1 | 11.3 mm | 6 mm | 6 mm | 30 µg/mL (≈ 136 µM) | – | – | 120 µg/mL (≈ 542 µM) | – | – | – |
| COc1ccc(S(=O)(=O)/C=C/C#N)cc1 | 25.9 mm | 26.9 mm | 13.3 mm | 3.75 µg/mL (≈ 16.8 µM) | 1.88 µg/mL (≈ 8.4 µM) | > 120 µg/mL | 30 µg/mL (≈ 134 µM) | 30 µg/mL (≈ 134 µM) | > 120 µg/mL | Active |
| O=S(=O)(/C=C/CCCBr)c1ccc(Br)cc1 | 6 mm | 6 mm | 6 mm | – | – | – | – | – | – | – |
| Cc1ccc(S(=O)(=O)/C=C/C(=O)O)cc1 | 6 mm | 9.94 mm | 6 mm | – | > 120 µg/mL | – | – | > 120 µg/mL | – | – |
| COC(=O)/C=C/S(=O)(=O)c1ccc(C)cc1 | 18.7 mm | 20.6 mm | 10.6 mm | 15 µg/mL (≈ 62.4 µM) | 7.5 µg/mL (≈ 31.2 µM) | > 120 µg/mL | 120 µg/mL (≈ 499 µM) | 120 µg/mL (≈ 499 µM) | > 120 µg/mL | – |
| Cc1ccc(S(=O)(=O)/C=C/C(=O)OC(C)(C)C)cc1 | 16.7 mm | 14.9 mm | 6 mm | 30 µg/mL (≈ 106 µM) | 7.5 µg/mL (≈ 26.6 µM) | – | 60 µg/mL (≈ 212 µM) | 120 µg/mL (≈ 425 µM) | – | – |
| Cc1ccc(/C=C/S(=O)(=O)c2ccc(C)cc2)cc1 | 6 mm | 6 mm | 6 mm | – | – | – | – | – | – | – |
| C/C(=C\C#N)S(=O)(=O)c1ccc(C)cc1 | 6 mm | 16.2 mm | 6 mm | – | 60 µg/mL (≈ 271 µM) | – | – | 60 µg/mL (≈ 271 µM) | – | – |
| Cc1ccc(S(=O)(=O)C/C=C\Oc2ccccc2)cc1 | 6 mm | 6 mm | 6 mm | – | – | – | – | – | – | – |
